Values joined by “and” are separate entries in the source; they are usually repeats but may differ in a detail not shown here. Identical values can stand only once. Like-named read-outs stand apart in the source and are kept apart here. Values belong to the molecule of their own block, whether it stands above or below them.
Key:
L1210 cells = assay: Nucleoside transport inhibition assay: inhibition of 3H-thymidine uptake, with or without AGP or HSA; assay type: cell-based, murine; conditions: for inhibition at 1 µM: L1210, 1 μM compound; for inhibition at 10 µM: L1210, 10 μM compound; for Effect of AGP on the inhibition of thymidine uptake: in words; for inhibition at 100 µM: L1210, 100 μM compound; for inhibition at 50 µM: L1210, 50 μM compound
Experimental: In vitro activity. […] For testing the compounds an established nucleoside transport assay involving measurement of thymidine uptake was adapted. Murine leukaemia L1210 cells were used in this assay as their nucleoside transport characteristics are well known. This assay for measuring thymidine uptake used a modification of the rapid mixing technique of Wohleheuter, R. […] Materials used included a transport buffer comprising 130 mM NaCl, 5 mM KC1, 1 mM MgCl, 5 mM NaH2 PO4, 10 mM glucose and 10 mM HEPES. This buffer was made up as sterile 5× concentrate and reconstituted in distilled water and adjusted to pH 7.4 immediately prior to carrying out the assay. […] The supernatant was aspirated and the cells were washed with ice-cold transport buffer and centrifuged again at 1000 rpm for 5 minutes at 4° C. The supernatant was removed and the cells were resuspended in ice-cold transport buffer to give a final cell density of 2-4×10^7 cells/mi. Cells were left on ice for 30 minutes recovery prior to starting the assay. […] The suspension was mixed well and 100 μl was layered onto 150 μl silicone oil (9:11 Dow Corning 556 (Sp.Gr. 0.98):Dow Corning 550 (Sp.Gr. 1.068) (final Sp.Gr. 1.028) overlaying 50 μl 3M KOH in 6 replicate 0.5 ml microfuge tubes. […] The tubes were immediately transferred to a microfuge (Eppendorf) and spun at 12000 rpm for 2 minutes to pellet the cells through the oil and into the KOH. The tubes were capped and the cells left to solubilise in the KOH for 1 hour. Cell number and viability for each run was determined by haemocytometer counting using trypan blue exclusion. […] The tubes were capped and cut in the oil layer such that the bottom portion (cells solubilised in KOH) fell into a 20 ml scintillation vial. 1 ml 0.25M acetic acid followed by 1 ml air was injected into the tube using a 2 ml syringe and 23-gauge needle to disperse and neutralise the KOH-solubilisedcells. 10 ml of Optiphase HiSafe™ scintillant was added and the vials capped and shaken. […] The [^14 C]:[^3 H] ratio was used to calculate the amount of non-transported contaminating [^3 H]thymidine in the extracellular space.

A549 [1] = assay: Prevention of hypoxanthine rescue from antifolate growth inhibition (sulphorhodamine B); assay type: cell-based; conditions: 3 μM NU3076, 10 μM hypoxanthine
Experimental: (§1) For example, in investigating the compound NU3076, two lung cancer cell lines: A549 and COR L23 and two breast cancer cell lines MCF7 and MDA MB231 were selected for study. All cell lines were adapted to growth in dialysed serum as previously referred to. […] Cells were exposed to varying concentrations of LY309887 in the presence or absence of 10 μM hypoxanthine, with or without 3 μM NU3076. At the end of the exposure period the cells were fixed and stained with sulphorhodamine B. Hypoxanthine protected all the cell lines from LY309887 growth inhibition.

MCF7 [2] = assay: as above; assay type: cell-based; conditions: 3 μM NU3076, 10 μM hypoxanthine
Experimental: as §1

A549 [3] = conditions: earlier experiments; cited from earlier work
MCF7 [4] = conditions: earlier experiments; cited from earlier work
[5] = Mus musculus, +5 mg/ml AGP vs no AGP, read-out: % Reduction (of inhibition by AGP)
[6] = Mus musculus, +5 mg/ml AGP, read-out: % Inhibition of 3H-thymidine uptake, +5 mg/ml AGP
[7] = Mus musculus, no AGP, read-out: % Inhibition of 3H-thymidine uptake, No AGP
[8] = Mus musculus, no AGP, 5% DMSO, read-out: % Inhibition of 3H-thymidine uptake, No AGP (5% DMSO)
[9] = 50 μM compound, no AGP, 5% DMSO, 50 µM

SMILES: OCCN(CCO)c1nc(N2CCc3ccccc3C2)c2nc(Cl)nc(N3CCc4ccccc4C3)c2n1 [NU3082, 2-Chloro-6-diethanolamino-4,8-di-(N-1,2,3,4-tetrahydroisoguinolyl)pyrimidopyrimidine]
% Inhibition of 3H-thymidine uptake, No AGP (L1210 cells; 1 μM compound, no AGP, 1 µM): 9% and 0% | inhibition at 10 µM (L1210 cells; [7]): 22 ± 14%

SMILES: CC(C)COc1nc(N2CCCCC2)c2nc(OCC(C)C)nc(N3CCCCC3)c2n1 [NU3071, 2,6-Di-(2'-methylpropoxy)-4,8-dipiperidinopyrimidopyrimidine]
inhibition at 10 µM (L1210 cells; [8]): 25 ± 4% | inhibition at 100 µM (L1210 cells; [8]): 65 ± 4%

SMILES: CC(C)Oc1nc(N2CCCCC2)c2nc(OC(C)C)nc(N3CCCCC3)c2n1 [NU3069, 2,6-Di-iso-propoxy-4,8-dipiperidinopyrimidopyrimidine]
inhibition at 10 µM (L1210 cells; [8]): 23 ± 12% | inhibition at 100 µM (L1210 cells; [8]): 64 ± 6%

SMILES: CCOc1nc(N2CCCCC2)c2nc(OCC)nc(N3CCCCC3)c2n1 [NU3068, 2,6-Diethoxy-4,8-dipiperidinopyrimidopyrimidine]
% Inhibition of 3H-thymidine uptake, No AGP (5% DMSO) (L1210 cells; [9]): 65% | inhibition at 10 µM (L1210 cells; [8]): 35 ± 4% | inhibition at 50 µM (L1210 cells; Mus musculus, no AGP, 5% DMSO): 74%

SMILES: CC(O)COc1nc(N2CCCCC2)c2nc(OCC(C)O)nc(N3CCCCC3)c2n1 (stereo not drawn) [NU3077, 2,6-Di(2'-hydroxypropoxy)-4,8-dipiperidinopyrimidopyrimidine]
% Inhibition of 3H-thymidine uptake, No AGP (L1210 cells; 1 μM compound, no AGP, 1 µM): 44 ± 8% | inhibition at 1 µM (L1210 cells; [5]): 55% | inhibition at 1 µM (L1210 cells; [6]): 20 ± 10% | inhibition at 1 µM (L1210 cells; [7]): 47 ± 8% | inhibition at 10 µM (L1210 cells; [5]): 25% | inhibition at 10 µM (L1210 cells; [6]): 69 ± 9% | inhibition at 10 µM (L1210 cells; [7]): 92 ± 10% | IC50 (L1210 cells; Mus musculus, L1210, no AGP): 900 nM | Effect of AGP on the inhibition of thymidine uptake (L1210 cells): no significant reduction | IC50 (L1210 cells; no AGP): 1130 nM

SMILES: COc1nc(N2CCCCC2)c2nc(OC)nc(N3CCCCC3)c2n1 [NU3067, 2,6-Dimethoxy-4,8-dipiperidinopyrimidopyrimidine]
% Inhibition of 3H-thymidine uptake, No AGP (5% DMSO) (L1210 cells; [9]): 76% | inhibition at 10 µM (L1210 cells; [8]): 39 ± 7% | inhibition at 50 µM (L1210 cells; Mus musculus, no AGP, 5% DMSO): 81%

SMILES: CCOC(C)(COc1nc(N2CCCCC2)c2nc(OCC(C)(OCC)OCC)nc(N3CCCCC3)c2n1)OCC [NU3065, 2,6-bis(2',2'-Diethylacetal-1-propoxy)-4,8-dipiperidinopyrimidopyrimidine]
inhibition at 1 µM (L1210 cells; [7]): 30 ± 7% | inhibition at 10 µM (L1210 cells; [7]): 65 ± 9% | inhibition at 100 µM (L1210 cells; [7]): 82 ± 16% | IC50 (L1210 cells; Mus musculus, L1210, no AGP): 4240 nM

SMILES: OCCN(CCO)c1nc(N2CCCCC2)c2nc(N(CCO)CCO)nc(N3CCCCC3)c2n1 [NU3003, 2,6-bis(diethanolamino)-4,8-dipiperidinopyrimidopyrimidine, reference compound]
Block of hypoxanthine rescue from lometerxol growth inhibition (A549 [3]): blocked hypoxantine rescue | Block of hypoxanthine rescue from lometerxol growth inhibition (MCF7 [4]): blocked hypoxantine rescue

SMILES: CC1(C)OC[C@@H](COc2nc(NCc3ccccc3)c3nc(OC[C@@H]4COC(C)(C)O4)nc(NCc4ccccc4)c3n2)O1 [NU3078, (R,R)-2,6-bis(2',2'-Dimethyl-1',3'-dioxolane-4'-methoxy)-4,8-dibenzylamino pyrimidopyrimidine]
% Inhibition of 3H-thymidine uptake, No AGP (L1210 cells; 10 μM compound, no AGP): 46 ± 3%

SMILES: C=CCOc1nc(N2CCCCC2)c2nc(OCC=C)nc(N3CCCCC3)c2n1 [NU3072, 2,6-Di-allyloxy-4,8-dipiperidinopyrimidopyrimidine]
% Inhibition of 3H-thymidine uptake, No AGP (5% DMSO) (L1210 cells; 100 μM compound, no AGP, 5% DMSO, 100 µM): 63% | inhibition at 10 µM (L1210 cells; [8]): 52 ± 7% | inhibition at 100 µM (L1210 cells; [8]): 66%

Second part, led by results:

IC50 (L1210 cells; Mus musculus, L1210, no AGP): 253 ± 75 nM
SMILES: COc1ccc(CNc2nc(N(CCO)CCO)nc3c(NCc4ccc(OC)cc4)nc(N(CCO)CCO)nc23)cc1 [NU3076, 2,6-bis (Diethanolamino)-4,8-di[(4'-methoxybenzyl)amino]pyrimidopyrimidine]
% Inhibition of 3H-thymidine uptake, No AGP (L1210 cells; 1 μM compound, no AGP, 1 µM): 56 ± 10% | % Inhibition of 3H-thymidine uptake, +40 mg/ml HSA (L1210 cells; 3 h): 89 ± 10% | inhibition at 1 µM (L1210 cells; [5]): 18% | inhibition at 1 µM (L1210 cells; [6]): 46 ± 8% | inhibition at 1 µM (L1210 cells; [7]): 65 ± 11% | inhibition at 10 µM (L1210 cells; [5]): 7% | inhibition at 10 µM (L1210 cells; [6]): 89 ± 14% | inhibition at 10 µM (L1210 cells; [7]): 96 ± 8% | Effect of AGP on the inhibition of thymidine uptake (L1210 cells): no significant reduction | Potency as inhibitor relative to dipyridamole (L1210 cells; presence and absence of AGP, or of 40 mg/ml human serum albumin): more potent inhibitors than dipyridamole | Prevention of hypoxanthine rescue from LY309887 growth inhibition (A549 [1]): prevented hypoxanthine rescue | Prevention of hypoxanthine rescue from LY309887 growth inhibition (MCF7 [2]): prevented hypoxanthine rescue

IC50 (L1210 cells; Mus musculus, L1210, no AGP): 670 nM | IC50 (L1210 cells; no AGP): 1200 nM
SMILES: COc1ccc(CNc2nc(OCCO)nc3c(NCc4ccc(OC)cc4)nc(OCCO)nc23)cc1 [NU3089, 2,6-Di(2'-hydroxyethoxy)-4,8-di(4'-methoxybenzylamino)pyrimidopyrimidine]
% Inhibition of 3H-thymidine uptake, No AGP (L1210 cells; 1 μM compound, no AGP, 1 µM): 24 ± 18% | inhibition at 1 µM (L1210 cells; [5]): 0% | inhibition at 1 µM (L1210 cells; [6]): 28 ± 25% | inhibition at 1 µM (L1210 cells; [7]): 40 ± 19% | inhibition at 10 µM (L1210 cells; [7]): 88 ± 11%

IC50 (L1210 cells; no AGP): 1440 nM
SMILES: CN(Cc1ccccc1)c1nc(OCCCO)nc2c(N(C)Cc3ccccc3)nc(OCCCO)nc12 [NU3088, 2,6-Di(3'-hydroxypropoxy)-4,8-di[(N-benzylmethyl)amino]pyrimidopyrimidine]
% Inhibition of 3H-thymidine uptake, No AGP (L1210 cells; 1 μM compound, no AGP): 52 ± 19% | % Inhibition of 3H-thymidine uptake, No AGP (L1210 cells; 10 μM compound, no AGP, 10 µM): 100% and 77%

IC50 (L1210 cells; Mus musculus, L1210, no AGP): 5900 nM | IC50 (L1210 cells; no AGP): 3800 nM
SMILES: COCCOc1nc(N(C)Cc2ccccc2)c2nc(OCCOC)nc(N(C)Cc3ccccc3)c2n1 [NU3092, 2,6-Di(-2'-methoxyethoxy)-4,8-di[(N-benzylmethyl)amino]-pyrimidopyrimidine]
inhibition at 1 µM (L1210 cells; [7]): 17 ± 8% | inhibition at 10 µM (L1210 cells; [7]): 68 ± 8%

IC50 (L1210 cells; Mus musculus, L1210, no AGP): 190 nM
SMILES: COc1ccc(CN(C)c2nc(OCCCO)nc3c(N(C)Cc4ccc(OC)cc4)nc(OCCCO)nc23)cc1 [NU3100, 2,6-Di-(3-hydroxypropoxy)-4,8-di-(N-[4-methoxybenzyl]-N-methyl)aminopyrimidopyrimidine]
inhibition at 1 µM (L1210 cells; [7]): 88%

IC50 (L1210 cells; Mus musculus, L1210, no AGP): 710 nM
SMILES: COc1ccc(CNc2nc(N(CCO)CCO)nc3c(NCc4ccc(OC)c(OC)c4)nc(Cl)nc23)cc1OC [NU3081, 2-chloro-6-diethanolamino-4,8-bis[(3',4'-dimethoxybenzyl)amino]pyrimidopyrimidine]
inhibition at 1 µM (L1210 cells; [7]): 59 ± 2% | inhibition at 10 µM (L1210 cells; [7]): 95 ± 9%

IC50 (L1210 cells; Mus musculus, L1210, no AGP): 720 ± 380 nM
SMILES: OCCN(CCO)c1nc(N2CCc3ccccc3C2)c2nc(N(CCO)CCO)nc(N3CCc4ccccc4C3)c2n1 [NU3080, 2,6-bis-Diethanolamino-4,8-di-(N-1,2,3,4-tetrahydroisoquinolyl)pyrimidopyrimidine]
inhibition at 1 µM (L1210 cells; [7]): 72 ± 22% | inhibition at 10 µM (L1210 cells; [5]): 31% | inhibition at 10 µM (L1210 cells; [6]): 69% | inhibition at 10 µM (L1210 cells; [7]): 100%
